Results: patent publication US20180228828A1, “FIXED-DOSE COMBINATIONS OF ANTIVIRAL COMPOUNDS” (priority 2015, published 2018)

What was measured:
[1] = human bioavailability comparison study, Tablet Formulation 9 vs co-administered single entity products; type: in vivo; details: for AUC(0-inf) / Cmax / AUC(0-t) / concentration at 24 h: human plasma, fasted; for concentration at 24 h: read-out: C24 GM
Protocol: (§1) The blend is lubricated with magnesium stearate prior to roller compaction. Following roller compaction, the granules are further lubricated with magnesium stearate before compression on a rotary press. Tablet properties of apparent density and solid fraction are determined by gravimetric measurement of the drug product and geometric estimation of size with corresponding component powder measure of true density using helium pycnometry. The core tablets are then film coated and waxed to complete manufacture.
(§2) The reference in the study was co-administration of single entity products to achieve the equivalent total dose. In this cross-over design study all subjects were in the fasted state. Tablet Formulations 9b, and 10b were administered as Treatment C in the respective studies. Tablet Formulations 9a, and 10a were administered as Treatment B in the respective studies. The co-administration of the reference products were identified as Treatment A. After administration, blood samples were taken periodically, and the plasma concentration of the analytes, both primary compounds and metabolites, determined to generate the pharmacokinetic profiles and related specific metrics. These metrics included Cmax, AUC, and C24 (where quantifiable). Summary results from the human PK trials for Tablet Formulation 9 and Tablet Formulation 10 products are provided in Table 10 to Table 13 and Table 14 to 17, respectively. The resulting metrics were then compared in relation to the reference single entity products to assess similarity.

[2] = human bioavailability comparison study, Tablet Formulation 10 vs co-administered single entity products; type: in vivo; details: for AUC(0-inf) / Cmax / AUC(0-t) / concentration at 24 h: human plasma, fasted; for concentration at 24 h: read-out: C24 GM
Protocol: as §1, §2

[3] = Treatment B (Tablet Formulation 9a) / Treatment A (single entities)
[4] = Treatment C (Tablet Formulation 9b) / Treatment A (single entities)
[5] = human, in vivo, Treatment A: co-administered single entity products, equivalent total dose
[6] = human, in vivo, Treatment A: co-administered single entity products, equivalent total dose, read-out: AUC0-24 GM
[7] = human, in vivo, Treatment A: co-administered single entity products, equivalent total dose, read-out: AUC0-last GM
[8] = human, in vivo, Treatment B: two units Tablet Formulation 9a
[9] = human, in vivo, Treatment C: two units Tablet Formulation 9b
[10] = Treatment B (Tablet Formulation 10a) / Treatment A (single entities)
[11] = Treatment C (Tablet Formulation 10b) / Treatment A (single entities)
[12] = human, in vivo, Treatment B: one unit Tablet Formulation 10a
[13] = human, in vivo, Treatment C: one unit Tablet Formulation 10b
[14] = human, plasma, oral, Treatment A: co-administered single entity products, equivalent total dose
[15] = human, plasma, oral, Treatment A: co-administered single entity products, equivalent total dose, read-out: AUC0-24 GM
[16] = human, plasma, oral, Treatment A: co-administered single entity products, equivalent total dose, read-out: AUC0-last GM
[17] = human, plasma, oral, Treatment B: two units Tablet Formulation 9a
[18] = human, plasma, oral, Treatment C: two units Tablet Formulation 9b
[19] = human, plasma, oral, Treatment B: one unit Tablet Formulation 10a
[20] = human, plasma, oral, Treatment C: one unit Tablet Formulation 10b

Q: Which “AUC0-24 B/A GM ratio” value [1, 3] does the source give for `CC(C)OC(=O)[C@@H](C)NP(=O)(OC[C@H]1O[C@@H](n2ccc(=O)[nH]c2=O)[C@](C)(Cl)[C@@H]1O)Oc1ccccc1` (stereo partly drawn) [Compound I, (2R)-isopropyl 2-(((((2R,3R,4R,5R)-4-chloro-5-(2,4-dioxo-3,4-dihydropyrimidin-1(2H)-yl)-3-hydroxy-4-methyltetrahydrofuran-2-yl)methoxy)(phenoxy)phosphoryl)amino)propanoate] here?
A: Its value is 1.23.

Q: And the “AUC0-last B/A GM ratio” value [1, 3]?
A: Its value is 1.24.

Q: And the “AUC0-∞ B/A GM ratio” value [1, 3]?
A: The value was 1.23.

Q: And the “Cmax B/A GM ratio” value [1, 3]?
A: The value was 1.44.

Q: What about the “AUC0-24 C/A GM ratio” value [1, 4] of the same molecule?
A: Its value is 1.37.

Q: And the “AUC0-last C/A GM ratio” value [1, 4]?
A: The value was 1.38.

Q: What about the “AUC0-∞ C/A GM ratio” value [1, 4] of the same molecule?
A: Its value is 1.36.

Q: And the “Cmax C/A GM ratio” value [1, 4]?
A: Its value is 1.69.

Q: What about the AUC(0-inf) [1, 5] of the same molecule?
A: Its AUC(0-inf) is 2.6 µM·h.

Q: What about the Cmax [1, 5] of the same molecule?
A: The Cmax was 738 nM.

Q: And the AUC(0-t) [1, 6]?
A: Its AUC(0-t) is 2.56 µM·h.

Q: And the AUC(0-t) [1, 7]?
A: The AUC(0-t) was 2.52 µM·h.

Q: And the AUC(0-t) ([1]; human, in vivo, Treatment B: two units Tablet Formulation 9a (450 mg Compound I, 100 mg Compound II, 50 mg Compound III), read-out: AUC0-last GM)?
A: The AUC(0-t) was 3.11 µM·h.

Q: What about the AUC(0-inf) [1, 8] of the same molecule?
A: The AUC(0-inf) was 3.2 µM·h.

Q: And the Cmax [1, 8]?
A: The Cmax was 1060 nM.

Q: What about the AUC(0-t) ([1]; human, in vivo, Treatment B: two units Tablet Formulation 9a, read-out: AUC0-24 GM) of the same molecule?
A: Its AUC(0-t) is 3.15 µM·h.

Q: And the AUC(0-t) ([1]; human, in vivo, Treatment C: two units Tablet Formulation 9b (450 mg Compound I, 100 mg Compound II, 50 mg Compound III), read-out: AUC0-last GM)?
A: Its AUC(0-t) is 3.48 µM·h.

Q: And the AUC(0-inf) [1, 9]?
A: Its AUC(0-inf) is 3.54 µM·h.

Q: And the Cmax [1, 9]?
A: Its Cmax is 1250 nM.

Q: And the AUC(0-t) ([1]; human, in vivo, Treatment C: two units Tablet Formulation 9b, read-out: AUC0-24 GM)?
A: Its AUC(0-t) is 3.52 µM·h.

Q: And the “AUC0-24 B/A GM ratio” value [2, 10]?
A: Its value is 0.96.

Q: And the “AUC0-last B/A GM ratio” value [2, 10]?
A: The value was 0.95.

Q: What about the “AUC0-∞ B/A GM ratio” value [2, 10] of the same molecule?
A: The value was 0.98.

Q: What about the “Cmax B/A GM ratio” value [2, 10] of the same molecule?
A: The value was 0.98.

Q: And the “AUC0-24 C/A GM ratio” value [2, 11]?
A: The value was 1.01.

Q: What about the “AUC0-last C/A GM ratio” value [2, 11] of the same molecule?
A: Its value is 1.00.

Q: What about the “AUC0-∞ C/A GM ratio” value [2, 11] of the same molecule?
A: The value was 1.01.

Q: What about the “Cmax C/A GM ratio” value [2, 11] of the same molecule?
A: The value was 1.18.

Q: What about the AUC(0-inf) [2, 5] of the same molecule?
A: Its AUC(0-inf) is 1.69 µM·h.

Q: And the Cmax [2, 5]?
A: Its Cmax is 525 nM.

Q: And the AUC(0-t) [2, 6]?
A: The AUC(0-t) was 1.65 µM·h.

Q: And the AUC(0-t) [2, 7]?
A: The AUC(0-t) was 1.63 µM·h.

Q: And the AUC(0-t) ([2]; human, in vivo, Treatment B: one unit Tablet Formulation 10a (300 mg Compound I, 100 mg Compound II, 50 mg Compound III), read-out: AUC0-last GM)?
A: Its AUC(0-t) is 1.55 µM·h.

Q: What about the AUC(0-inf) [2, 12] of the same molecule?
A: Its AUC(0-inf) is 1.65 µM·h.

Q: What about the Cmax [2, 12] of the same molecule?
A: The Cmax was 517 nM.

Q: What about the AUC(0-t) ([2]; human, in vivo, Treatment B: one unit Tablet Formulation 10a, read-out: AUC0-24 GM) of the same molecule?
A: Its AUC(0-t) is 1.58 µM·h.

Q: What about the AUC(0-t) ([2]; human, in vivo, Treatment C: one unit Tablet Formulation 10b (300 mg Compound I, 100 mg Compound II, 50 mg Compound III), read-out: AUC0-last GM) of the same molecule?
A: The AUC(0-t) was 1.63 µM·h.

Q: And the AUC(0-inf) [2, 13]?
A: The AUC(0-inf) was 1.7 µM·h.

Q: What about the Cmax [2, 13] of the same molecule?
A: The Cmax was 618 nM.

Q: What about the AUC(0-t) ([2]; human, in vivo, Treatment C: one unit Tablet Formulation 10b, read-out: AUC0-24 GM) of the same molecule?
A: The AUC(0-t) was 1.67 µM·h.

Q: For `COC(=O)N[C@H](C(=O)N1CCC[C@H]1c1nc(-c2ccc3c(c2)O[C@@H](c2ccccc2)n2c-3cc3cc(-c4c[nH]c([C@@H]5CCCN5C(=O)[C@@H](NC(=O)OC)C(C)C)n4)ccc32)c[nH]1)C(C)C` [Compound II, dimethyl N,N′-([(6S)-6-phenylindolo[1,2-c][1,3]benzoxazine-3,10-diyl]bis{1H-imidazole-5,2-diyl-(2S)-pyrrolidine-2,1-diyl[(2S)-3-methyl-1-oxobutane-1,2-diyl]})dicarbamate], which Cmax ([1]; Treatment C: two units Tablet Formulation 9b) is on record?
A: Its Cmax is 115 nM.

Q: What about the AUC(0-inf) [1, 14] of the same molecule?
A: Its AUC(0-inf) is 2.04 µM·h.

Q: What about the Cmax [1, 14] of the same molecule?
A: The Cmax was 113 nM.

Q: What about the AUC(0-t) [1, 15] of the same molecule?
A: The AUC(0-t) was 1.21 µM·h.

Q: What about the AUC(0-t) [1, 16] of the same molecule?
A: The AUC(0-t) was 2.01 µM·h.

Q: What about the concentration at 24 h [1, 14] of the same molecule?
A: Its concentration at 24 h is 32.3 nM.

Q: And the AUC(0-t) ([1]; human, plasma, oral, Treatment B: two units Tablet Formulation 9a (450 mg Compound I, 100 mg Compound II, 50 mg Compound III), read-out: AUC0-last GM)?
A: Its AUC(0-t) is 1.59 µM·h.

Q: What about the AUC(0-inf) [1, 17] of the same molecule?
A: The AUC(0-inf) was 1.61 µM·h.

Q: What about the AUC(0-t) ([1]; human, plasma, oral, Treatment B: two units Tablet Formulation 9a, read-out: AUC0-24 GM) of the same molecule?
A: Its AUC(0-t) is 0.938 µM·h.

Q: And the concentration at 24 h [1, 17]?
A: The concentration at 24 h was 25.2 nM.

Q: And the AUC(0-t) ([1]; human, plasma, oral, Treatment C: two units Tablet Formulation 9b (450 mg Compound I, 100 mg Compound II, 50 mg Compound III), read-out: AUC0-last GM)?
A: Its AUC(0-t) is 2.35 µM·h.

Q: And the AUC(0-inf) [1, 18]?
A: The AUC(0-inf) was 2.38 µM·h.

Q: And the AUC(0-t) ([1]; human, plasma, oral, Treatment C: two units Tablet Formulation 9b, read-out: AUC0-24 GM)?
A: Its AUC(0-t) is 1.41 µM·h.

Q: And the concentration at 24 h [1, 18]?
A: Its concentration at 24 h is 37.4 nM.

Q: And the Cmax ([2]; Treatment C: one unit Tablet Formulation 10b)?
A: The Cmax was 102 nM.

Q: And the AUC(0-inf) [2, 14]?
A: Its AUC(0-inf) is 1.84 µM·h.

Q: And the Cmax [2, 14]?
A: Its Cmax is 101 nM.

Q: And the AUC(0-t) [2, 15]?
A: The AUC(0-t) was 1.12 µM·h.

Q: And the AUC(0-t) [2, 16]?
A: The AUC(0-t) was 1.81 µM·h.

Q: What about the concentration at 24 h [2, 14] of the same molecule?
A: The concentration at 24 h was 28.5 nM.

Q: What about the AUC(0-t) ([2]; human, plasma, oral, Treatment B: one unit Tablet Formulation 10a (300 mg Compound I, 100 mg Compound II, 50 mg Compound III), read-out: AUC0-last GM) of the same molecule?
A: The AUC(0-t) was 1.55 µM·h.

Q: And the AUC(0-inf) [2, 19]?
A: Its AUC(0-inf) is 1.58 µM·h.

Q: And the Cmax [2, 19]?
A: The Cmax was 81.8 nM.

Q: And the AUC(0-t) ([2]; human, plasma, oral, Treatment B: one unit Tablet Formulation 10a, read-out: AUC0-24 GM)?
A: Its AUC(0-t) is 0.95 µM·h.

Q: What about the concentration at 24 h [2, 19] of the same molecule?
A: Its concentration at 24 h is 25.1 nM.

Q: What about the AUC(0-t) ([2]; human, plasma, oral, Treatment C: one unit Tablet Formulation 10b (300 mg Compound I, 100 mg Compound II, 50 mg Compound III), read-out: AUC0-last GM) of the same molecule?
A: Its AUC(0-t) is 1.83 µM·h.

Q: And the AUC(0-inf) [2, 20]?
A: The AUC(0-inf) was 1.85 µM·h.

Q: What about the AUC(0-t) ([2]; human, plasma, oral, Treatment C: one unit Tablet Formulation 10b, read-out: AUC0-24 GM) of the same molecule?
A: The AUC(0-t) was 1.14 µM·h.

Q: And the concentration at 24 h [2, 20]?
A: The concentration at 24 h was 29.2 nM.
